Source: ChEMBL document CHEMBL5653631, “A Potent and Selective ULK1 Inhibitor Suppresses Autophagy and Sensitizes Cancer Cells to Nutrient Stress” (iScience, 2018)
Blank lines part the entries; values can stand above or below the compound they belong to.

Tests used:
[1] = target: T1, Serine/threonine-protein kinase Chk1 (Homo sapiens) (UniProt O14757); assay: Inhibition of human recombinant CHK1 at 500 nM in presence of ATP by radiometric assay relative to control
T1 sequence (whole entry): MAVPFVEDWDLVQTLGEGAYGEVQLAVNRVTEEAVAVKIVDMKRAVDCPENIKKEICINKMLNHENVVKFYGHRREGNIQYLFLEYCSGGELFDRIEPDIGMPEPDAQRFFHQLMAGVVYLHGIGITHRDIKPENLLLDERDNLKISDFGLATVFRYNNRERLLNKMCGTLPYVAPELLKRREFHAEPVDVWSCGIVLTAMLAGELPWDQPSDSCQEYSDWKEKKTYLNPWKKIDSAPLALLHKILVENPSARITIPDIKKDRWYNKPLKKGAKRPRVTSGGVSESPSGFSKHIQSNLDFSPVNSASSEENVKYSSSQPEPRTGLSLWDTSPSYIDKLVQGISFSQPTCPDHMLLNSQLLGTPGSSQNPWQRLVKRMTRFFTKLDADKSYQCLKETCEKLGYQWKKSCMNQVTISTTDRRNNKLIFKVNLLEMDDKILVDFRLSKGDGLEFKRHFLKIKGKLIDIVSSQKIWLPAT

[2] = target: Bone morphogenetic protein receptor type-1B (Homo sapiens) (UniProt O00238); assay: Inhibition of human recombinant BMPR1B at 500 nM related to control ULK1
[3] = target: Calcium/calmodulin-dependent protein kinase kinase 1 (Homo sapiens) (UniProt Q8N5S9); assay: Inhibition of human recombinant CaMKK1 at 15 nM in presence of ATP by radiometric assay relative to control
[4] = target: T2, SNF-related serine/threonine-protein kinase (Homo sapiens) (UniProt Q9NRH2); assay: Inhibition of human recombinant SNRK at 15 nM in presence of ATP by radiometric assay relative to control
T2 sequence (whole entry): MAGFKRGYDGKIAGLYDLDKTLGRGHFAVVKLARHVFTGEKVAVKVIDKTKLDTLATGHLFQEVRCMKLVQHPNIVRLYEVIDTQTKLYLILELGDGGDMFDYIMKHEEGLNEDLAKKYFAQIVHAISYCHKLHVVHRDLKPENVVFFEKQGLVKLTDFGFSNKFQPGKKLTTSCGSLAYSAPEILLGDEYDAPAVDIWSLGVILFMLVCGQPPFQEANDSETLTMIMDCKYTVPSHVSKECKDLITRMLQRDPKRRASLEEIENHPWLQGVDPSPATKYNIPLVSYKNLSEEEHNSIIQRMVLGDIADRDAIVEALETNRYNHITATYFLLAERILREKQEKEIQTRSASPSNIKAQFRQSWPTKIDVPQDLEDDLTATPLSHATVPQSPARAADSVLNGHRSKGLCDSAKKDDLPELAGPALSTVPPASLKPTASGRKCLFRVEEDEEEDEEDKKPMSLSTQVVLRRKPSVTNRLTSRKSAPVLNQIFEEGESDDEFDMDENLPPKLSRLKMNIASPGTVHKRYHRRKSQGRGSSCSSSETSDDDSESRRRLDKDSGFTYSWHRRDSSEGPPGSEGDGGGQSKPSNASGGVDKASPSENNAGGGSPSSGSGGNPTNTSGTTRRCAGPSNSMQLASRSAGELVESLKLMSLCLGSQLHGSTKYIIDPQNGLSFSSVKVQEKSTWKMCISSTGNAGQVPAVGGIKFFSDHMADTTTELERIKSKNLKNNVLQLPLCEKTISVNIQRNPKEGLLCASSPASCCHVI

[5] = target: Serine/threonine-protein kinase pim-3 (Homo sapiens) (UniProt Q86V86); assay: Inhibition of human recombinant PIM3 at 15 nM related to control ULK1
[6] = target: Protein kinase C alpha type (Homo sapiens) (UniProt P17252); assay: Inhibition of human recombinant PKCa at 15 nM in presence of ATP by radiometric assay relative to control
[7] = target: Death-associated protein kinase 3 (Homo sapiens) (UniProt O43293); assay: Inhibition of human recombinant DAPK3 at 40 nM related to control ULK1
[8] = target: Receptor tyrosine-protein kinase erbB-4 (Homo sapiens) (UniProt Q15303); assay: Inhibition of human recombinant ErbB4 at 40 nM related to control ULK1
[9] = target: T3, Serine/threonine-protein kinase Nek2 (Homo sapiens) (UniProt P51955); assay: Inhibition of human recombinant NEK2 at 40 nM in presence of ATP by radiometric assay relative to control
T3 sequence (whole entry): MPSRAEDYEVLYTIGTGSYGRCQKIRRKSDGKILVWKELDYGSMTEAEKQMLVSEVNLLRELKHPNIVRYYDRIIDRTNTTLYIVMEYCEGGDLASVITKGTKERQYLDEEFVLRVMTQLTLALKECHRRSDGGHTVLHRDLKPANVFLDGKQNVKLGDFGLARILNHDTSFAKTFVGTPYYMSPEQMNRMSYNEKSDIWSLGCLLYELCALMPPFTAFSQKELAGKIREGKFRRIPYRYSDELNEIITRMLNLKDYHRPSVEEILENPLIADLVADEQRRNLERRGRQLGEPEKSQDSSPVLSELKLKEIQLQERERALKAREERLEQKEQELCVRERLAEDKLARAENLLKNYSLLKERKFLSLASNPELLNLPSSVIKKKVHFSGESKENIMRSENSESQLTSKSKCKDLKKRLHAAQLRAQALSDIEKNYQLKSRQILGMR

[10] = target: Serine/threonine-protein kinase MARK2 (Homo sapiens) (UniProt Q7KZI7); assay: Inhibition of human recombinant MARK2 at 40 nM in presence of ATP by radiometric assay relative to control
[11] = target: Serine/threonine-protein kinase 10 (Homo sapiens) (UniProt O94804); assay: Inhibition of human recombinant LOK at 40 nM related to control ULK1
Serine/threonine-protein kinase 10 (Homo sapiens), sequence (O94804 whole entry, looked up): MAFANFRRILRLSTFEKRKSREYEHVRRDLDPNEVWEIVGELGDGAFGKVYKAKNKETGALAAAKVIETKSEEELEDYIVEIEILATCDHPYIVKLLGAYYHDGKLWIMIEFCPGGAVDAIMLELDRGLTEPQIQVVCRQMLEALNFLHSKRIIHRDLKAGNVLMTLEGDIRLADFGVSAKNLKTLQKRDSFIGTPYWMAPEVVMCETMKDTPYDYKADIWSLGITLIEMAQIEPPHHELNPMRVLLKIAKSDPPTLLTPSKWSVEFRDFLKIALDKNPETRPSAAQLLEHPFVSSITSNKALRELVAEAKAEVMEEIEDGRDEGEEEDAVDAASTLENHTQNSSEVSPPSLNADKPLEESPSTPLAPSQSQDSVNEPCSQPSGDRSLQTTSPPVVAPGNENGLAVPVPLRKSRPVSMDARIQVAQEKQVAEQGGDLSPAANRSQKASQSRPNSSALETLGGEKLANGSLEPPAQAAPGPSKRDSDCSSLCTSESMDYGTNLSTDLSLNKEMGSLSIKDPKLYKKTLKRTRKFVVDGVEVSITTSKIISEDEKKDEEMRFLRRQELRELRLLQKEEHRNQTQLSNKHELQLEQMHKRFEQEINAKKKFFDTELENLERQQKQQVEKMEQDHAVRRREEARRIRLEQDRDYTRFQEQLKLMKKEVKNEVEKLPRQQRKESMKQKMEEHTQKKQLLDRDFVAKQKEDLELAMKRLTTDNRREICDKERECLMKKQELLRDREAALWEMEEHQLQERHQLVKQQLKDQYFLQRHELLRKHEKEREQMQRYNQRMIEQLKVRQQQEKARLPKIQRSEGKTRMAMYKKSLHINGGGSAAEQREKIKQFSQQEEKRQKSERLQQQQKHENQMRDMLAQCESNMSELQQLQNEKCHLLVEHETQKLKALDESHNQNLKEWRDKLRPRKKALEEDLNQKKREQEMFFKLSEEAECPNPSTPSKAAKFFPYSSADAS

Calcium/calmodulin-dependent protein kinase kinase 1 (Homo sapiens), sequence (Q8N5S9 whole entry, looked up): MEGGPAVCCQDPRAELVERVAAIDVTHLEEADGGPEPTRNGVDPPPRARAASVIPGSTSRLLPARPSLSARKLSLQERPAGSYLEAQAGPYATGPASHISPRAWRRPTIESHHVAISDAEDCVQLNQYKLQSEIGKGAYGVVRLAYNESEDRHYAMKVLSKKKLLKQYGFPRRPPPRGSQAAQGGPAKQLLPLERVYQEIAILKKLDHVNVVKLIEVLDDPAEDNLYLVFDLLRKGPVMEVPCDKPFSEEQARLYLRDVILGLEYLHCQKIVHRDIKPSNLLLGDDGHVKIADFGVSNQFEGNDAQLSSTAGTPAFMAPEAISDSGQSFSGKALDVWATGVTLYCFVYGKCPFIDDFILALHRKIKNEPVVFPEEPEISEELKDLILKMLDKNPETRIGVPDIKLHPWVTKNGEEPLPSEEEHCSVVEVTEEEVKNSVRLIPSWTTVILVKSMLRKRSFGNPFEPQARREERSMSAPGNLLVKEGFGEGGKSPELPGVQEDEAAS
Serine/threonine-protein kinase MARK2 (Homo sapiens), sequence (Q7KZI7 whole entry): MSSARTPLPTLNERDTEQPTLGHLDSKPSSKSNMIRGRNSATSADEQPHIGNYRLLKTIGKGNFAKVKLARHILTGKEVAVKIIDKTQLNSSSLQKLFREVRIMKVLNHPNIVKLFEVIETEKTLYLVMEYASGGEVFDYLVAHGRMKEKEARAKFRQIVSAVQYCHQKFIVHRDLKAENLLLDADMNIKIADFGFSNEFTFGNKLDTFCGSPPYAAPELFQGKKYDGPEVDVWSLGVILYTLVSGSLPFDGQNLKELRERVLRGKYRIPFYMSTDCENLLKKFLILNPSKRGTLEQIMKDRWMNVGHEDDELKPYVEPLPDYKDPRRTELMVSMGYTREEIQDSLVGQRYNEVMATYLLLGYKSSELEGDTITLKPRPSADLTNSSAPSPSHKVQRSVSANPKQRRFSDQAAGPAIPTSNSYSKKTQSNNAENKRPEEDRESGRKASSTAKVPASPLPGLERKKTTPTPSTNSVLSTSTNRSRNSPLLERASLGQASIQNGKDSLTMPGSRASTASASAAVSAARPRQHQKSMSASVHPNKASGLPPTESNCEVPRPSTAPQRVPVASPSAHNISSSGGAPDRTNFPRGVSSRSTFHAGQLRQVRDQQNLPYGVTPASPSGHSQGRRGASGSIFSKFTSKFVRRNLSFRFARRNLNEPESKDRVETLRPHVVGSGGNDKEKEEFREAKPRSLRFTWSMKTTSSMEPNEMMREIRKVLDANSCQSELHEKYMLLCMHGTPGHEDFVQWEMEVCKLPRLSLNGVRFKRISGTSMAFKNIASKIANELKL
Receptor tyrosine-protein kinase erbB-4 (Homo sapiens), sequence (Q15303 whole entry): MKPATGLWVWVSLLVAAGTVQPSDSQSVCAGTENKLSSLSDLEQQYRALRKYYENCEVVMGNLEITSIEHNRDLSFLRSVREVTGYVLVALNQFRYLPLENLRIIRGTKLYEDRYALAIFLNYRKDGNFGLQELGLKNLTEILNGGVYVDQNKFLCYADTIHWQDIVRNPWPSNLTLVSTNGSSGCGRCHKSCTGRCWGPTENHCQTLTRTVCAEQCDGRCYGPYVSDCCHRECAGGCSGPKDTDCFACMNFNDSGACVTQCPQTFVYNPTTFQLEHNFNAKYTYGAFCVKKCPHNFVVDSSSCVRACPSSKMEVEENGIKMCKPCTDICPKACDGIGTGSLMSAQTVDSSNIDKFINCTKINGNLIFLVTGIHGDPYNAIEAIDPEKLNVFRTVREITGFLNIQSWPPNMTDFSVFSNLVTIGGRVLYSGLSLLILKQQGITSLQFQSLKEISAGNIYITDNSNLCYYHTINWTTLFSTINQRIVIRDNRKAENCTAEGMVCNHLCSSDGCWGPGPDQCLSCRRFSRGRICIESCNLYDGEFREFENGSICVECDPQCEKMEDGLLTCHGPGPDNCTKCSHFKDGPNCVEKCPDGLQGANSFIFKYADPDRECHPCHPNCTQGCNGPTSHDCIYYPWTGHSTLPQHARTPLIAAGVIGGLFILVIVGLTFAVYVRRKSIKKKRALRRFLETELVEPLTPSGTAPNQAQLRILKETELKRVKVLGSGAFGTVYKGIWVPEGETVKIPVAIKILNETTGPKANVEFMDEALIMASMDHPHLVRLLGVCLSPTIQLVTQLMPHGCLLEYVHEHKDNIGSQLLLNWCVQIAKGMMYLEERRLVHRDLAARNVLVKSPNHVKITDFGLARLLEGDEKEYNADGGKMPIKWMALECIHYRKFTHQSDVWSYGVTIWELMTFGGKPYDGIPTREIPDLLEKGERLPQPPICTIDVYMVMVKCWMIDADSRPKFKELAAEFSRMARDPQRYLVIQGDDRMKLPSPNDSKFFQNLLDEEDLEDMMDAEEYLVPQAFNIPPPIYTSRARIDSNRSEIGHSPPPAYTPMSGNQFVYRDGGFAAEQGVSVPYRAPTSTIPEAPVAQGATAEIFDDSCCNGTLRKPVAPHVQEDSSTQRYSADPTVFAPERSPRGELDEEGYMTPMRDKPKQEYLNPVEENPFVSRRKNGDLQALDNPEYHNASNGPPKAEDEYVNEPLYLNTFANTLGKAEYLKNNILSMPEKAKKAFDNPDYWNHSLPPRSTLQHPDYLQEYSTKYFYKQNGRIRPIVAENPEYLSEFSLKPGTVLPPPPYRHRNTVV
Bone morphogenetic protein receptor type-1B (Homo sapiens), sequence (O00238 whole entry): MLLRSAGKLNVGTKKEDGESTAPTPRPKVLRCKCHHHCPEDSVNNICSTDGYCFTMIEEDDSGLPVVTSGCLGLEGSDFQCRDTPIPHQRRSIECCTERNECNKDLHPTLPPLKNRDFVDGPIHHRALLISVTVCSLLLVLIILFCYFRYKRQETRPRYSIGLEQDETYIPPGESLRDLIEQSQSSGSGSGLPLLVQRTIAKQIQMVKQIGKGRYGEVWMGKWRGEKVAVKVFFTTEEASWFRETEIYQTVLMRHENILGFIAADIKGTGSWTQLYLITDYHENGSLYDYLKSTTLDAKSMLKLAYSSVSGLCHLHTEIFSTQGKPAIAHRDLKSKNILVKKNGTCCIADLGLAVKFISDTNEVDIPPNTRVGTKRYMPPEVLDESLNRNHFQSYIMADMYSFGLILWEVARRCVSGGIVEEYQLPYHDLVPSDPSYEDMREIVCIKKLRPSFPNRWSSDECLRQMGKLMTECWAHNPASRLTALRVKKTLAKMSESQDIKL

inhibition [1]: 4%
fold change (FC) [2]: 0
Structure (SMILES): CNC(=O)c1ccccc1Oc1nc(Nc2cc(OC)c(OC)c(OC)c2)ncc1Br

inhibition [3]: 0%
inhibition [4]: 8%
fold change (FC) [5]: 0.02
inhibition [6]: 7%
Structure (SMILES): CC(C)[C@H](NC(=O)c1cc(-c2cnn3cc(-c4ccc(OCCN5CCCCC5)cc4)cnc23)cs1)C(F)(F)F

fold change (FC) [8]: 0
inhibition [9]: 0%
inhibition [10]: 12%
fold change (FC) [11]: 0
Structure (SMILES): O=C(N[C@@H](C1CC1)C(F)(F)F)c1cc(-c2cnn3cc(-c4ccc(F)cc4)cnc23)cs1
fold change (FC) [7]: 0.11
